In this assay the target is BttxB (Clostridium botulinum, UniProt P10844). The format is biochemical.
Sequence of BttxB (P10844 2-441 limits assumed): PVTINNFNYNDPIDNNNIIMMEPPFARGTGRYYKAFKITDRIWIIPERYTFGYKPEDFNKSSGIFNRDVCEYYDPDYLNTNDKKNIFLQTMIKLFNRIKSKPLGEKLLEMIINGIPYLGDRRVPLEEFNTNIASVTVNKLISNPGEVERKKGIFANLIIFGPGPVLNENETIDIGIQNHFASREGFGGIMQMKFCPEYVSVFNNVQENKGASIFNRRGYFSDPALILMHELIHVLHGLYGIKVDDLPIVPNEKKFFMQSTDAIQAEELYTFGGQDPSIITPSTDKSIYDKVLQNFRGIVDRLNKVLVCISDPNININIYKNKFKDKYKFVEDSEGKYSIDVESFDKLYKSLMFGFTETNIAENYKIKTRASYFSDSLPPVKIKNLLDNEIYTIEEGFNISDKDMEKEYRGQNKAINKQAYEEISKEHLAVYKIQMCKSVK

“AGRGKQGGKVRAKAKTRSSRAGLQFPVGRVHRLLRK [Peptide 36]”: the “effectiveness as inhibitor of BttxB activity relative to B-I” value was “about 50%”.

Consider RPKPQQFFGLM [Substance P], for which the “inhibition of BttxB (in words)” value was “inhibitor”.

Take `CC(C)C[C@H](NC(=O)CNC(=O)[C@H](C)NC(=O)[C@H](CCCNC(=N)N)NC(=O)[C@H](CO)NC(=O)[C@H](CO)NC(=O)[C@H](CCCNC(=N)N)NC(=O)[C@@H](NC(=O)[C@H](CCCCN)NC(=O)[C@H](C)NC(=O)[C@H](CCCCN)NC(=O)[C@H](C)NC(=O)[C@H](CCCNC(=N)N)NC(=O)[C@@H](NC(=O)[C@H](CCCCN)NC(=O)CNC(=O)CNC(=O)[C@H](CCC(N)=O)NC(=O)[C@H](CCCCN)NC(=O)CNC(=O)[C@H](CCCNC(=N)N)NC(=O)CNC(=O)[C@H](C)N)C(C)C)[C@@H](C)O)C(=O)N[C@@H](CCC(N)=O)C(=O)N[C@@H](Cc1ccccc1)C(=O)N1CCC[C@H]1C(=O)N[C@H](C(=O)NCC(=O)N[C@@H](CCCNC(=N)N)C(=O)N[C@H](C(=O)N[C@@H](Cc1c[nH]cn1)C(=O)N[C@@H](CCCNC(=N)N)C(=O)N[C@@H](CC(C)C)C(=O)N[C@@H](CC(C)C)C(=O)N[C@@H](CCCNC(=N)N)C(=O)N[C@@H](CCCCN)C(=O)NCC(=O)N[C@@H](CC(N)=O)C(=O)N[C@@H](Cc1ccc(O)cc1)C(=O)O)C(C)C)C(C)C` [B-I]: the “substrate of BttxB or not” value was “not a substrate”.

For the origin of these results see US7375079B2 (priority 1999, dated 2008).
